Reference: patent publication US20220396567A1, “SUBSTITUTED PYRIMIDINE FOR THE TREATMENT AND PROPHYLAXIS OF HEPATITIS B VIRUS INFECTION” (Hoffmann-La Roche Inc., priority 2019, published 2022)

tested on: HBV; assay: Cryopreserved primary human hepatocytes (PHH) HBV infection assay, extracellular HBsAg by CLIA; type: cell-based; conditions: Hepatitis B virus, Hepatocyte, 216 h; HBV-infected cryopreserved PHH; extracellular HBsAg at 9 days post-compound treatment; 4 parameter logistic curve fit
Method: This assay is used to confirm the anti-HBV effect of the compounds in HBV PHH infection assay. Cryopreserved PHH (BioreclamationIVT, Lot YJM) was thawed at 37° C. and gently transferred into pre-warmed InVitroGRO HT medium (BioreclamationIVT, Cat. S03317). The mixture was centrifuged at 70 relative centrifugal force (RCF) for 3 min at RT, and the supernatant was discarded. Pre-warmed InVitroGRO CP medium (BioreclamationIVT, Cat #S03316) was added to the cell pellet to gently re-suspend cells. The cells were seeded at the density of 5.8×10^4 cells per well to collagen I coated 96-well plate (Gibco, Cat. A1142803) with the InVitroGRO CP medium. All plates were incubated at 37° C. with 5% CO2 and 85% humidity.
At 20 hrs after plating, the medium was changed to PHH culture medium (Dulbecco's Modified Eagle Medium (DMEM)/F12 (1:1) (Gibco, Cat. 11320-033), 10% fetal bovine serum (Gibco Cat. 10099141), 100 U/mL penicillin, 100 μg/mL streptomycin (Gibco, Cat. 151401-122), […] (Invitrogen Cat. PHG0311L), 20 ng/mL dexamethasone (Sigma, Cat. D4902) and 250 ng/mL human recombinant insulin (Gibco, Cat. 12585-014)). And the cells were incubated at 37° C. with 5% CO2 and 85% humidity for 4 hrs. The medium was then changed to pre-warmed PHH culture medium containing 4% polyethylene glycol (PEG) MW8000 (Sigma, Cat. P1458-50 ML) and 1% DMSO (Sigma, Cat. D2650). 5.8×10^6 genomic equivalents of HBV were added into the medium.
At 24 hrs post-infection, the cells were gently washed with PBS and refreshed with PHH culture medium supplemented with 1% DMSO, and 0.25 mg/mL Matrix gel (Corning, Cat. 356237) at 200 μL per well. All plates were immediately placed in at 37° C. CO2 incubator.
24 hrs later, serial dilutions of compounds made with DMSO were further diluted with the same culture medium (PHH culture medium supplemented with 1% DMSO and 0.25 mg/mL Matrix gel as described above) before they were added to the cells to reach desired final compound concentrations and 1% DMSO concentration. The medium containing the compounds were refreshed every three days.
At 9 days post-compound treatment, extracellular HBsAg level were measured with Chemiluminescence Immuno Assay (CLIA) kit (Autobio, HBsAg Quantitative CLIA).
HBsAg IC50 was derived from the dose-response curve using 4 parameter logistic curve fit method. The compounds of formula (I) have HBsAg IC50<20 μM, particularly <1 μM.

SMILES	IC50
CCOc1nc(NCc2cccc(C(F)(F)F)c2)c(C#N)c(-c2ccco2)n1 [Example 18, 2-ethoxy-4-(2-furyl)-6-[[3-(trifluoromethyl)phenyl]methylamino]pyrimidine-5-carbonitrile]	6.02 µM
CCOC(=O)c1c(NCc2c(Br)ccc(OC)c2OC)nc(C(C)C)nc1-c1ccco1 [Example 62, Ethyl 4-[(6-bromo-2,3-dimethoxy-phenyl)methylamino]-6-(2-furyl)-2-isopropyl-pyrimidine-5-carboxylate]	10.2 µM
COCCNc1nc(NCc2cccc(Cl)c2)c(C(=O)O)c(-c2ccco2)n1 [Example 59, 4-[(3-chlorophenyl)methylamino]-6-(2-furyl)-2-(2-methoxyethylamino)pyrimidine-5-carboxylic Acid]	3.71 µM
CCOC(=O)c1c(NCc2cccc(C(F)(F)F)c2)nc(C)nc1-c1ccco1 [Example 61, Ethyl 4-(2-furyl)-2-methyl-6-[[3-(trifluoromethyl)phenyl]methylamino]pyrimidine-5-carboxylate]	7.38 µM
N#Cc1c(NCC(F)Cc2ccccc2Cl)nc(N)nc1-c1ccco1 (stereo not drawn) [Example 4, 2-amino-4-[[3-(2-chlorophenyl)-2-fluoro-propyl]amino]-6-(2-furyl)pyrimidine-5-carbonitrile]	11.4 µM
CC(C)Oc1ccc(CNc2nc(N)nc(-c3ccco3)c2C#N)cc1Br [Example 2, 2-amino-4-[(3-bromo-4-isopropoxy-phenyl)methylamino]-6-(2-furyl)pyrimidine-5-carbonitrile]	3.28 µM
O=C(O)c1c(NCc2cccc(C(F)(F)F)c2)nc(N2CC3(CCC3)C2)nc1-c1ccco1 [Example 48, 2-(2-azaspiro[3.3]heptan-2-yl)-4-(2-furyl)-6-[[3-(trifluoromethyl)phenyl]methylamino]pyrimidine-5-carboxylic Acid]	6.37 µM
CC1(C)CC(CNc2nc(N)nc(-c3ccco3)c2C#N)CC(C)(C)O1 [Example 3, 2-amino-4-(2-furyl)-6-[(2,2,6,6-tetramethyltetrahydropyran-4-yl)methylamino]pyrimidine-5-carbonitrile]	1.67 µM
N#Cc1c(NC2CCCC2)nc(N)nc1-c1ccco1 [Example 9, 2-amino-4-(cyclopentylamino)-6-(2-furyl)pyrimidine-5-carbonitrile]	8.68 µM
COc1nc(NCc2cccc(C(F)(F)F)c2)c(C#N)c(-c2ccco2)n1 [Example 17, 4-(2-furyl)-2-methoxy-6-[[3-(trifluoromethyl)phenyl]methylamino]pyrimidine-5-carbonitrile]	3.35 µM
CC(C)CNc1ncnc(-c2ccco2)c1C#N [Example 26, 4-(2-furyl)-6-(isobutylamino)pyrimidine-5-carbonitrile]	5.7 µM
N#Cc1c(NCCc2ccccc2)ncnc1-c1ccco1 [Example 28, 4-(2-furyl)-6-(2-phenylethylamino)pyrimidine-5-carbonitrile]	0.42 µM
CC(Nc1cc(-c2ccco2)nc(N(C)C)n1)c1cccc(C(F)(F)F)c1 (stereo not drawn) [Example 32, 6-(2-furyl)-N2,N2-dimethyl-N4-[1-[3-(trifluoromethyl)phenyl]ethyl]pyrimidine-2,4-diamine]	3.49 µM
CN(C)c1nc(NCC2CCCC2)c(C(=O)O)c(-c2ccco2)n1 [Example 43, 4-(cyclopentylmethylamino)-2-(dimethylamino)-6-(2-furyl)pyrimidine-5-carboxylic Acid]	5.55 µM
Nc1nc(NCc2cccc(C(F)(F)F)c2)c(C(=O)N2CCOCC2)c(-c2ccco2)n1 [Example 55, [2-amino-4-(2-furyl)-6-[[3-(trifluoromethyl)phenyl]methylamino]pyrimidin-5-yl]-morpholino-methanone]	10.1 µM
COc1ccccc1CNc1nc(N)nc(-c2ccco2)c1C(=O)O [Example 40, 2-amino-4-(2-furyl)-6-[(2-methoxyphenyl)methylamino]pyrimidine-5-carboxylic Acid]	6.67 µM
CCOC(=O)c1c(NCc2cccc(C(F)(F)F)c2)nc(N2CC3(CCC3)C2)nc1-c1ccco1 [Example 47, Ethyl 2-(2-azaspiro[3.3]heptan-2-yl)-4-(2-furyl)-6-[[3-(trifluoromethyl)phenyl]methylamino]pyrimidine-5-carboxylate]	3.26 µM
CCOC(=O)c1c(NCc2c(Br)ccc(OC)c2OC)nc(N)nc1-c1ccco1 [Example 44, Ethyl 2-amino-4-[(6-bromo-2,3-dimethoxy-phenyl)methylamino]-6-(2-furyl)pyrimidine-5-carboxylate]	8.06 µM
COc1c(NCc2cccc(C(F)(F)F)c2)nc(N)nc1-c1ccco1 [Example 35, 6-(2-furyl)-5-methoxy-N4-[[3-(trifluoromethyl)phenyl]methyl]pyrimidine-2,4-diamine]	7.85 µM
Cc1nc(NC2(c3ccccc3S(C)(=O)=O)CC2)c(C#N)c(-c2ccco2)n1 [Example 22, 4-(2-furyl)-2-methyl-6-[[1-(2-methylsulfonylphenyl)cyclopropyl]amino]pyrimidine-5-carbonitrile]	2.73 µM
CCNc1nc(NCc2cccc(C(F)(F)F)c2)c(C#N)c(-c2ccco2)n1 [Example 14, 2-(ethylamino)-4-(2-furyl)-6-[[3-(trifluoromethyl)phenyl]methylamino]pyrimidine-5-carbonitrile]	2.76 µM
CC(Nc1nc(N)nc(-c2ccco2)c1C#N)c1ccccc1 (stereo not drawn) [Example 1, 2-amino-4-(2-furyl)-6-(1-phenylethylamino)pyrimidine-5-carbonitrile]	5.93 µM
Nc1nc(NCc2cccc(C(F)(F)F)c2)c(C(=O)N2CCCCC2)c(-c2ccco2)n1 [Example 54, [2-amino-4-(2-furyl)-6-[[3-(trifluoromethyl)phenyl]methylamino]pyrimidin-5-yl]-(1-piperidyl)methanone]	6.59 µM
N#Cc1c(NCc2ccccc2Cl)ncnc1-c1ccco1 [Example 24, 4-[(2-chlorophenyl)methylamino]-6-(2-furyl)pyrimidine-5-carbonitrile]	3.07 µM
CC(C)(C)OC(=O)N1CCN(C(=O)c2c(NCc3cccc(C(F)(F)F)c3)nc(N)nc2-c2ccco2)CC1 [Example 56, tert-butyl4-[2-amino-4-(2-furyl)-6-[[3-(trifluoromethyl)phenyl]methylamino]pyrimidine-5-carbonyl]piperazine-1-carboxylate]	9.66 µM
CS(=O)(=O)c1ccccc1C1(Nc2nc(N)nc(-c3ccco3)c2C#N)CC1 [Example 7, 2-amino-4-(2-furyl)-6-[[1-(2-methylsulfonylphenyl)cyclopropyl]amino]pyrimidine-5-carbonitrile]	1.78 µM
N#Cc1c(NCc2cccc(C(F)(F)F)c2)nc(NCC(F)(F)F)nc1-c1ccco1 [Example 13, 4-(2-furyl)-2-(2,2,2-trifluoroethylamino)-6-[[3-(trifluoromethyl)phenyl]methylamino]pyrimidine-5-carbonitrile]	3.93 µM
